This is an account of results in patent US9938258B2 (Karyopharm Therapeutics Inc., priority 2012, dated 2018).

Each structure is given as a SMILES string. Bounds are passed on as bounds.

In assay [1] the test system is UCH-2 cell line. Kind of assay: MTT cell proliferation assay, UCH-2. The assay is classed as cell-based. The conditions noted are these: UCH2, incubation approximately 64-72 hours. The method, then: (§1) The MTT cell proliferation assay was used to study the cytotoxic properties of the compounds. The assay was performed according to the method described by Roche Molecular Biochemicals, with minor modifications. The assay is based on the cleavage of the tetrazolium salt, MTT, in the presence of an electron-coupling reagent. The water-insoluble formazan salt produced must be solubilized in an additional step. Cells grown in a 96-well tissue culture plate were incubated with the MTT solution for approximately 4 hours. After this incubation period, a water-insoluble formazan dye formed. After solubilization, the formazan dye was quantitated using a scanning multi-well spectrophotometer (ELISA reader). […] The cells were seeded at 5,000-10,000 cells in each well of 96-well plate in 100 μL of fresh culture medium and were allowed to attach overnight. The stock solutions of the compounds were diluted in 100 μL cell culture medium to obtain eight concentrations of each test compound, ranging from 1 nM to 30 μM. […] All optical densities were measured at 490 nm using a Vmax Kinetic Microplate Reader (Molecular Devices). In most cases, the assay was performed in duplicate and the results were presented as a mean percent inhibition to the negative control±SE. The following formula was used to calculate the percent of inhibition: Inhibition (%)=(1-(ODo/OD)) ×100. […]

Assay [2] relates to MS751 cells. Description: MTT cell proliferation assay, MS751. The assay is classed as cell-based, human. The settings on record: Homo sapiens, MS751, MS751 cells, approximately 64-72 hours incubation; read-out: MTT Assay IC50, MS751. In outline:
(§2)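 Read-out: MTT reduction to formazan, solubilised and measured at 490 nm after ~4 h with MTT; inhibition (%) = (1-(ODo/OD))×100 relative to negative control. Seeding was 5,000-10,000 cells/well with overnight attachment. Eight test concentrations spanned 1 nM-30 μM; mostly duplicate, mean ± SE.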

Assay [3] has as its system HEP 3B cells. Description: MTT cell proliferation assay, HEP 3B. The class given is cell-based. The conditions noted are these: Homo sapiens, Hep3B, incubation approximately 64-72 hours. The method, then: (§3) The MTT cell proliferation assay was used to study the cytotoxic properties of the compounds. The assay was performed according to the method described by Roche Molecular Biochemicals, with minor modifications. The assay is based on the cleavage of the tetrazolium salt, MTT, in the presence of an electron-coupling reagent. The water-insoluble formazan salt produced must be solubilized in an additional step. Cells grown in a 96-well tissue culture plate were incubated with the MTT solution for approximately 4 hours. After this incubation period, a water-insoluble formazan dye formed. After solubilization, the formazan dye was quantitated using a scanning multi-well spectrophotometer (ELISA reader). […] The cells were seeded at 5,000-10,000 cells in each well of 96-well plate in 100 μL of fresh culture medium and were allowed to attach overnight. The stock solutions of the compounds were diluted in 100 μL cell culture medium to obtain eight concentrations of each test compound, ranging from 1 nM to 30 μM. […] All optical densities were measured at 490 nm using a Vmax Kinetic Microplate Reader (Molecular Devices). In most cases, the assay was performed in duplicate and the results were presented as a mean percent inhibition to the negative control±SE. The following formula was used to calculate the percent of inhibition: Inhibition (%)=(1-(ODo/OD)) ×100.
(§4) The M24 cell line is derived from human melanoma cells. The U2OS cell line is a human osteosarcoma cell line expressing wild type p53 and Rb, but lacking p16. The MM1S cell line is a multiple myeloma cell line; the parent cell line, MM.1, was established from peripheral blood of a multiple myeloma patient who had become resistant to steroid-based therapy. The RPMI8226 cell line is derived from human B lymphocyte cells. NHDF cells are normal human dermal fibroblast cells. The MRC-5 cell line is derived from normal lung tissue of a fetus. The LN18 cell line is a human malignant glioma cell line. The DU-145 cell line is a human prostate cancer cell line. A549 cells are human adenocarcinomic human alveolar basal epithelial cells. […]

In assay [4] the test system is Z138 cells. Kind of assay: MTT cell proliferation assay, Z138. The assay is classed as cell-based. The settings on record: Homo sapiens, Z-138, Z138 cells, approximately 64-72 hours incubation; read-out: MTT Assay IC50, Z138. In outline:
as §2

In assay [5] the test system is Hep G2 cells. Description: MTT cell proliferation assay, Hep G2. The settings on record: Homo sapiens, HepG2, incubation approximately 64-72 hours. The assay is classed as cell-based. The method, then:
as §3
The M24 cell line is derived from human melanoma cells. The U2OS cell line is a human osteosarcoma cell line expressing wild type p53 and Rb, but lacking p16. The MM1S cell line is a multiple myeloma cell line; the parent cell line, MM.1, was established from peripheral blood of a multiple myeloma patient who had become resistant to steroid-based therapy. The RPMI8226 cell line is derived from human B lymphocyte cells. NHDF cells are normal human dermal fibroblast cells. The MRC-5 cell line is derived from normal lung tissue of a fetus. The LN18 cell line is a human malignant glioma cell line. The DU-145 cell line is a human prostate cancer cell line. A549 cells are human adenocarcinomic human alveolar basal epithelial cells. The MOLT4 cell line is a human acute lymphoblastic leukemia cell line. The THP1 cell line is a human leukemic monocytic cell line derived from peripheral blood. The OCIAML5 cell line is a human acute myeloid leukemia cell line. The MDA-MB-231 cell line is a human breast adenocarcinoma cell line. The MDA-MB-468 cell line is a human breast carcinoma cell line. HL-60 cells are human promyelocytic leukemia cells. Hep G2 cells are human hepatocellular carcinoma cells. HEP 3B cells are human hepatocellular carcinoma cells. The DLD-1 cell line is a colorectal adenocarcinoma cell line. The HCT-15 cell line is a human colon carcinoma cell line. The Colo-205 cell line is derived from a human adenocarcinoma of the colon. […]

Assay [6] relates to PAK4 interactors and downstream proteins. Description: Immunoblots of PAK4 interactors and downstream proteins in U2OS cells. The assay is classed as cell-based, human. The conditions noted are these: 0.5 μM or 5 μM, 72 hours. The method, then:
Immunoblots were used to measure the effects of exemplary compounds on protein steady-state levels and phophorylation of PAK4 interactor and downstream proteins. Specifically, U2OS (osteosarcoma) cells were split and plated on day 1. After overnight attachment to the tissue culture plate, cells were treated with either DMSO (0), 37 nM, 111 nM, 333 nM, 1 μM, or 3 μM Compound 246 for 72 hours. Cells were collected, washed and lysed in RIPA buffer. After obtaining the protein concentration by BCA assay, lysates were boiled in loading buffer and run on SDS-PAGE. The gels were transferred to nitrocellulose membranes and blotted with antibodies raised against phosphor-PAK4, PAK4, phophos-beta-catenin, beta-catenin, GEF-H1, phospho-Akt, Akt, phospho-ERK1/2, ERK1/2, phospho-cofilin, cofilin, phospho-histone H3, histone H3, cyclin D1, Mcl-1, Bcl-2, p21, survivin, caspase 8, caspase 3, PARP, and beta-actin (loading control).
In another experiment, U2OS (osteosarcoma) cells were split and plated on day 1. After overnight attachment to the tissue culture plate, cells were treated with DMSO (Ct), 0.5 μM, or 5 μM of Compound 124, 369, 226, 246, or 907 for 72 hours. Cells were collected, washed and lysed in RIPA buffer. After obtaining the protein concentration by BCA assay, lysates were boiled in loading buffer and run on SDS-PAGE. The gels were transferred to nitrocellulose membranes and blotted with antibodies raised against phophos-beta-catenin, cyclin D1, PAK4, phospho-cofilin, and beta-actin (loading control).

Assay [7] has as its system 3T3 cells. Description: MTT cell proliferation assay, 3T3. The assay is classed as cell-based, mouse. The conditions noted are these: Mus musculus, NIH3T3, 3T3 cells, approximately 64-72 hours incubation; read-out: MTT Assay IC50, 3T3. In short, it runs like this:
as §2

Assay [8] deals with SNU-182 cell line. Description: MTT cell proliferation assay, SNU-182. The class given is cell-based. The conditions noted are these: Homo sapiens, incubation approximately 64-72 hours. On the procedure: as §1
The subject of assay [9] is MDA-MB-231 cell line. Kind of assay: MTT cell proliferation assay, MDA-MB-231. The assay is classed as cell-based. The conditions noted are these: Homo sapiens, incubation approximately 64-72 hours. On the procedure: as §1
Assay [10] has as its system MOLT4 cell line. Kind of assay: MTT cell proliferation assay, MOLT4. The assay is classed as cell-based. The settings on record: Homo sapiens, MOLT-4, incubation approximately 64-72 hours. The method, then:
as §1

Assay [11] has as its system MM1S cell line. Kind of assay: MTT cell proliferation assay, MM1S. The class given is cell-based. The settings on record: Homo sapiens, MM1.S, incubation approximately 64-72 hours. The method, then:
as §3, §4

In assay [12] the test system is OCIAML5 cell line. Kind of assay: MTT cell proliferation assay, OCIAML5. The assay is classed as cell-based. The settings on record: Homo sapiens, OCI-AML-5, incubation approximately 64-72 hours. The method, then:
as §1

Assay [13] has as its system THP1 cell line. Kind of assay: MTT cell proliferation assay, THP1. The assay is classed as cell-based. The conditions noted are these: Homo sapiens, THP-1, incubation approximately 64-72 hours. On the procedure: as §1
In assay [14] the test system is A549 cells. Kind of assay: MTT cell proliferation assay, A549. The class given is cell-based. The settings on record: Homo sapiens, incubation approximately 64-72 hours. On the procedure: as §1
Assay [15] concerns Daudi cell line. Description: MTT cell proliferation assay, Daudi. The conditions noted are these: Homo sapiens, incubation approximately 64-72 hours. The assay is classed as cell-based. The method, then:
as §1

Assay [16] has as its system HL-60 cells. Description: MTT cell proliferation assay, HL-60. The class given is cell-based. The conditions noted are these: Homo sapiens, incubation approximately 64-72 hours. The method, then: as §1
For assay [17], the system named is L3.6pl cell line. Description: MTT cell proliferation assay, L3.6pl. The assay is classed as cell-based. The settings on record: Homo sapiens, incubation approximately 64-72 hours. On the procedure:
as §1

Assay [18] has as its system HCT-15 cell line. Description: MTT cell proliferation assay, HCT-15. The class given is cell-based. The conditions noted are these: Homo sapiens, incubation approximately 64-72 hours. On the procedure:
as §1

For assay [19], the system named is LN18 cell line. Description: MTT cell proliferation assay, LN18. The assay is classed as cell-based. The conditions noted are these: Homo sapiens, LN-18, incubation approximately 64-72 hours. On the procedure:
as §1

`Nc1ccc(/C=C/C(=O)NCC2Cc3cc(-c4ccc(C(=O)N5CC(F)(F)C5)cc4)cc(Cl)c3O2)cn1` (stereo not drawn) [Compound 226, (E)-3-(6-aminopyridin-3-yl)-N-((7-chloro-5-(4-(3,3-difluoroazetidine-1-carbonyl)phenyl)-2,3-dihydrobenzofuran-2-yl)methyl)acrylamide]: the IC50 in [1] is more than 30000 nM; in assay [2], less than 100 nM; in assay [3], less than 100 nM; in assay [4] it was less than 100 nM; in assay [5], less than 100 nM; in assay [7], 5000 to 30000 nM. This compound displayed an IC50 in [8] of less than 100 nM. In addition, the PAK4 total protein entry in [6] was “decrease”. In addition, the “phosphorylation of PAK4 signaling proteins beta-catenin and cofilin” value in assay [6] is given as “decreases in phosphorylation”.

On to `Nc1ccc(/C=C/C(=O)NCC2Cc3cc(-c4ccc(C(=O)N5CCOCC5)cc4)cc(Cl)c3O2)cn1` (stereo not drawn) [Compound 302, (E)-3-(6-Aminopyridin-3-yl)-N-((7-chloro-5-(4-(morpholine-4-carbonyl)phenyl)-2,3-dihydrobenzofuran-2-yl)methyl)acrylamide], for which the IC50 in assay [9] was 100 to 5000 nM; in assay [10], less than 100 nM; in [2], less than 100 nM; in assay [11], less than 100 nM; in assay [12] it was less than 100 nM; in [13] it was 100 to 5000 nM. In addition, the IC50 was less than 100 nM in assay [4]; 100 to 5000 nM in assay [14]; less than 100 nM in assay [5]; less than 100 nM in assay [15]; 100 to 5000 nM in [16]; 100 to 5000 nM in assay [17]. Further, the figures for the IC50 in [7], in assay [18] and in [19] were 100 to 5000 nM, less than 100 nM and 100 to 5000 nM, respectively.
